This is an account of results in patent US11845770B2, “Ascaroside derivatives and methods of use” (California Institute of Technology, priority 2019, dated 2023).

Data set [1] in a line: Stability in plasma (human). Format: in vitro ADME. Conditions: after 120 minutes, 37° C. As to the method:
The pH of plasma was adjusted to 7.4±0.1 if required. 1 mM intermediate solution was prepared by diluting 10 μL of the 10 mM stock solution of 1 with 90 μL DMSO; 1 mM intermediate of positive control propantheline bromide was prepared by diluting 10 μL of the stock solution with 90 μL ultra-pure water. 100 μM dosing solution was prepared by diluting 10 μL of the 1 mM intermediate solution with 90 μL of 45% MeOH/H2O. 98 μL of blank plasma was spiked with 2 μL of the 100 μM dosing solution to achieve a final concentration of 2 μM of the compound in duplicate. Samples were incubated at 37° C. in a water bath. At each time point (0, 10, 30, 60 and 120 min), 400 μL of stop solution (200 ng/mL tolbutamide plus 200 ng/mL labetalol in 50% ACN/MeOH) was added and was mixed thoroughly to precipitate protein. Sample plates were centrifuged at 4,000 rpm for 10 min. An aliquot of supernatant (100 μL) was transferred from each well and was mixed with 200 μL ultra-pure water. The samples were shaken at 800 rpm for about 10 min before LC/MS/MS analysis.
The remaining percentage of compound 1 (test article) after incubation was calculated according to the following equation.

The test system of data set [2] is BEAS-2B human lung epithelial cells. In words: Stimulation of BEAS-2B human lung epithelial cells, cytokine expression. The following applies: 48 h. It counts as cell-based. As to the method:
BEAS-2B cells were maintained in Bronchial Epithelial Cell Growth Basal Medium (BEBM) containing all the recommended supplements for the Bronchial Epithelial Cell Growth Medium (BEGM; Lonza #CC-4175) and allowed to attain approximately 70% confluency with media changed every 2-3 days at 37° C. with 5% (v/v) CO2. Tissue culture flasks/vessels were pre-coated with a mixture of 0.01 mg/mL fibronectin (Sigma), 0.03 mg/ml bovine collagen type I (Sigma) and 0.01 mg/mL bovine serum albumin dissolved in the BEBM. BEAS-2B cells were seeded with 0.5 ml of 1×10^6 cells/mL in BEGM per well on 24-well plates and incubated overnight at 37° C. with 5% (v/v) CO2. The cells are pre-treated with different concentrations of compounds (0, 1.0, 10, 100, 1000 μM) for 1 hour prior to stimulation. To stimulate the cells, 10 ng/mL of Interleukin-1 beta (IL-1β), 10 ng/mL of Lipopolysaccharides (LPS), or 20 ng/mL of IL-1$ is added to the wells without removing the media and incubated for 48 hours at 37° C. with 5% (v/v) CO2. Supernatants were collected and stored at −80° C. until quantitative detection assays are performed. Human Eotaxin, Monocyte Chemoattractant Protein-1 (MCP-1), Interleukin-6 (IL-6), Interleukin-25 (IL-25), Interleukin-33 (IL-33), Thymic stromal lymphopoietin (TSLP), and Granulocyte-Macrophage Colony-Stimulating Factor (GM-CSF) released from supernatants collected post stimulation were measured using Human Magnetic Luminex® Assay Kit. Human CCL5/RANTES was measured using an Enzyme-Linked Immunosorbent Assay (ELISA)-based analysis.

Data set [3] is described as follows: Plasma protein binding, HT-Dialysis (human). It counts as in vitro ADME. The following applies: pH 7.4, dialysis 4 hours, read-out: percent unbound. How it is done: HT-Dialysis plate (Model HTD 96 b, Cat #1006) and the dialysis membrane (molecular weight cut off 12-14 KDa, Cat #1101) can be purchased from HT Dialysis LLC (Gales Ferry, CT).
The plasma was thawed under running cold tap water and centrifuged at 3220×g for 5 min to remove any clots. The pH value was checked and recorded. Only plasma within range of pH 7.0 to pH 8.0 was used. The dialysis membrane was pretreated according to the manufacturer's instructions. Briefly, the dialysis membrane strips were soaked in ultra-pure water at room temperature for approximately 1 hr. After that, each membrane strip that contained 2 membranes was separated and soaked in ethanol:water (20:80 v:v) for approximately 20 min. The membrane was rinsed and soaked for 20 min in ultra-pure water.
Aliquots of 50 μL loading plasma (matrix) containing compound 1 or warfarin in triplicate were transferred to the appropriate wells of a sample collection plate. The samples were matched with dialysis buffer to obtain a final volume of 100 μL with a volume ratio of plasma (matrix):dialysis buffer (1:1, v:v) in each well. […]
The % Unbound, % Bound, % Recovery and % Remaining were calculated using the following equations: % Unbound=100×F/T % Bound=100−% Unbound % Recovery=100×(F+T)/T0 • F=the compound 1 concentration on the receiver side of the membrane/Correction Factor. […]

Setting [4] is: 10 ng/mL IL-1β, compound concentration series, FIG. 10A.
Where [5] appears, read: 10 ng/mL IL-1β, compound concentration series, FIG. 10B.
[6] abbreviates: 10 ng/mL LPS, compound concentration series, FIG. 11A.
[7] abbreviates: 10 ng/mL LPS, compound concentration series, FIG. 11B.
Where [8] appears, read: at 100 μM, 10 ng/mL IL-1β, FIG. 10A.
[9] abbreviates: at 100 μM, 10 ng/mL IL-1β, FIG. 10B.

With `C[C@H](CC/C=C/C(=O)O)O[C@@H]1O[C@@H](C)[C@H](O)C[C@H]1O` [ascr #7, reference compound], the “remaining percentage after incubation” value in data set [1] was 89.8%. In data set [2] (setting [4]), the “percent inhibition relative to Stimulated of IL-6 expression” value is reported as “did not show convincing inhibition”; the “percent inhibition relative to Stimulated of IL-8 expression” value is listed as “did not show convincing inhibition”; the “percent inhibition relative to Stimulated of IL-25 expression” value is recorded as “statistically significant, dose-dependent inhibition”; the “percent inhibition relative to Stimulated of IL-33 expression” value is “did not show convincing inhibition”. Further, in data set [2] (setting [5]), the “percent inhibition relative to Stimulated of Eotaxin expression” value was “statistically significant, dose-dependent inhibition”; the “percent inhibition relative to Stimulated of GM-CSF expression” value is recorded as “did not demonstrate convincing inhibition”; the “percent inhibition relative to Stimulated of MCP-1 expression” value was “did not demonstrate convincing inhibition”; the “percent inhibition relative to Stimulated of TSLP expression” value is recorded as “did not demonstrate convincing inhibition”. In addition, in data set [2] (setting [6]), the “percent inhibition relative to Stimulated of IL-6 expression” value is given as “did not show convincing inhibition”, the “percent inhibition relative to Stimulated of IL-8 expression” value is “did not show convincing inhibition”, the “percent inhibition relative to Stimulated of IL-25 expression” value is “did not show convincing inhibition” and the “percent inhibition relative to Stimulated of IL-33 expression” value was “did not show convincing inhibition”. In data set [2] (setting [7]), the “percent inhibition relative to Stimulated of GM-CSF expression” value was “did not show convincing inhibition”, the “percent inhibition relative to Stimulated of MCP-1 expression” value was “did not show convincing inhibition” and the “percent inhibition relative to Stimulated of TSLP expression” value was “did not show convincing inhibition”. The “percent inhibition relative to Stimulated of IL-25 expression” value in data set [2] (20 ng/mL IL-1β, compound concentration series, FIG. 12) is recorded as “statistically significant, dose-dependent blocking”. The “percent inhibition relative to Stimulated of Eotaxin expression” value in data set [2] (at 10 and 100 μM, 20 ng/mL IL-1β, FIG. 13) is on record as “statistically significant, almost complete blocking”. The fraction unbound at 4 h in data set [3] was found to be 0.868.
Consider `C[C@H](CC/C=C/C(=O)OC(C)(C)C)O[C@@H]1O[C@@H](C)[C@H](O)C[C@H]1O` [Compound 1, tert-butyl (2E,6R)-6-{[(2R,3R,5R,6S)-3,5-dihydroxy-6-methyloxan-2-yl]oxy}hept-2-enoate], for which the “remaining percentage after incubation” value in data set [1] amounted to 86.5%. Besides, the “percent inhibition relative to Stimulated of IL-25 expression” value in data set [2] (setting [4]) is “statistically significant, dose-dependent inhibition”. Besides, the “percent inhibition relative to Stimulated of Eotaxin expression” value in data set [2] (setting [5]) is reported as “statistically significant, dose-dependent inhibition”. In data set [2] (setting [8]), the “percent inhibition relative to Stimulated of IL-6 expression” value is reported as “statistically significant, complete inhibition”; the “percent inhibition relative to Stimulated of IL-8 expression” value is “statistically significant, complete inhibition”; the “percent inhibition relative to Stimulated of IL-25 expression” value is on record as “statistically significant, complete inhibition”; the “percent inhibition relative to Stimulated of IL-33 expression” value is given as “statistically significant, complete inhibition”. In data set [2] (setting [9]), the “percent inhibition relative to Stimulated of GM-CSF expression” value is reported as “statistically significant, complete inhibition”; the “percent inhibition relative to Stimulated of MCP-1 expression” value is recorded as “statistically significant, complete inhibition”; the “percent inhibition relative to Stimulated of TSLP expression” value is given as “statistically significant, complete inhibition”. The “inhibition of expression of multiple inflammatory cytokines (IL-6, IL-8, IL-25, IL-33)” value in data set [2] (at 100 μM, 10 ng/mL LPS, FIG. 11A) is “complete, statistically significant inhibition”. In addition, the “inhibition of expression of multiple inflammatory cytokines (GMCSF, MCP-1, TSLP)” value in data set [2] (at 100 μM, 10 ng/mL LPS, FIG. 11B) is given as “statistically significant, complete inhibition”. Also, the fraction unbound at 4 h in data set [3] was 0.329.
